{
  "source": "paper PMC7875120",
  "about": "(Bioorganic & medicinal chemistry, 2020)",
  "key": {"HeLa cells": {"tested_on": "HeLa cells", "experiment": "Antiproliferative activity in parental HeLa cells", "assay_type": "cell-based", "details": "Homo sapiens, read-out: IC50 ± SD HeLa"}, "MDA-MB-435 cancer cells": {"tested_on": "MDA-MB-435 cancer cells", "details": "earlier report; cited from earlier work"}, "SK-OV-3 cells": {"tested_on": "SK-OV-3 cells", "experiment": "Antiproliferative activity in parental SK-OV-3 cells", "assay_type": "cell-based", "details": "Homo sapiens, SK-OV-3, read-out: IC50 ± SD SK-OV-3"}, "[1]": {"tested_on": "cellular microtubules in A-10 cells", "experiment": "Microtubule depolymerizing effects, cell-based phenotypic screen", "details": "for microtubule depolymerizing activity: at 10000 nM, A-10 cells"}, "U251 cancer cells": {"tested_on": "U251 cancer cells", "experiment": "U251 cytotoxicity assay", "assay_type": "cell-based, human", "details": "versus compound 5"}, "[2]": {"experiment": "Maximal tolerated dose, dose escalation study", "assay_type": "in vivo", "details": "nude mice, escalation until >5% weight loss"}, "NCI 60 cancer cell lines": {"tested_on": "NCI 60 cancer cell lines", "experiment": "NCI 60 cell line panel", "assay_type": "cell-based", "details": "values in Table S2, not available"}, "[3]": {"tested_on": "U251 human glioma cells implanted into nude mice", "experiment": "U251 flank xenograft study", "assay_type": "in vivo", "details": "17.5 mg/kg twice week"}},
  "note": "Counter-ions that a name gives are not always drawn.",
  "data": [
    {"smiles": "COc1ccc(/C=C\\c2cc(OC)c(OC)c(OC)c2)cc1O", "note": "[CA-4, Combretastatin A-4]", "values": [
      {"measurement": "IC50", "setting": "HeLa cells", "result": "4.7 ± 0.2", "unit": "nM"}
    ]},
    {"smiles": "COc1ccc(Nc2nc(C)nc3c2CC(C)C3)cc1", "note": "(stereo not drawn) [Compound 2]", "values": [
      {"measurement": "antiproliferative and microtubule depolymerizing activity", "setting": "MDA-MB-435 cancer cells", "result": "almost inactive"}
    ]},
    {"smiles": "COc1ccc(N(C)c2nc(C)nc3c2CCC3)cc1", "note": "[Compound 3, 2,4-dimethyl-4-(4′-methoxy)phenyl cyclopenta[d]pyrimidine]", "values": [
      {"measurement": "IC50", "setting": "SK-OV-3 cells", "result": "11.3 ± 0.2", "unit": "nM"},
      {"measurement": "IC50", "setting": "HeLa cells", "result": "12 ± 1.2", "unit": "nM"}
    ]},
    {"smiles": "COc1ccc2c(N(C)c3nc(C)nc4c3CCC4)cccc2c1", "note": "[Compound 4, N-(6’-methoxynaphthyl-1’)-N,2-dimethyl-cyclopenta[d]pyrimidin-4-amine hydrochloric acid salt]", "values": [
      {"measurement": "microtubule depolymerizing activity", "setting": "[1]", "result": "no microtubule depolymerizing activity"},
      {"measurement": "fold less potent/active than 5 in the U251 cytotoxicity assay", "setting": "U251 cancer cells", "result": 5, "unit": "fold"}
    ]},
    {"smiles": "COc1cccc2cc(N(C)c3nc(C)nc4c3CCC4)ccc12", "note": "[Compound 5, N-(5’-methoxynaphthyl-2’)-N,2-dimethyl-cyclopenta[d]pyrimidin-4-amine hydrochloric acid salt]", "values": [
      {"measurement": "fold more potent than CA-4 in microtubule depolymerizing activity", "setting": "[1]; versus CA-4", "result": "about 3 fold"},
      {"measurement": "Maximal tolerated dose (MTD)", "setting": "[2]", "result": 17.5, "unit": "mg/kg/2x wk"},
      {"measurement": "GI50s in the NCI 60 cell line panel", "setting": "NCI 60 cancer cell lines", "result": "potent GI50s against most of the NCI 60 cancer cell lines"},
      {"measurement": "toxicity as measured by animal weight", "setting": "[3]; U251 xenograft mice", "result": "without significant toxicity"},
      {"measurement": "tumor growth (tumor volume) in U251 xenograft", "setting": "[3]; started 7 days after implantation", "result": "inhibited tumor growth as compared with the carrier or temozolomide"}
    ]},
    {"smiles": "COc1ccc(N(C)c2nc(C)nc3c2CCC3)c2ccccc12", "note": "[Compound 6, N-(4’-methoxynaphthyl-1’)-N,2-dimethyl-cyclopenta[d]pyrimidin-4-amine]", "values": [
      {"measurement": "fold less potent than 5 for microtubule depolymerizing activity", "setting": "[1]; versus compound 5", "result": "more than 100 fold"},
      {"measurement": "fold less potent/active than 5 in the U251 cytotoxicity assay", "setting": "U251 cancer cells", "result": 2, "unit": "fold"}
    ]},
    {"smiles": "COc1cccc2c(N(C)c3nc(C)nc4c3CCC4)cccc12", "note": "[Compound 7, N-(5’-methoxynaphthyl-1’)-N,2-dimethyl-cyclopenta[d]pyrimidin-4-amine hydrochloric acid salt]", "values": [
      {"measurement": "fold less potent/active than 5 in the U251 cytotoxicity assay", "setting": "U251 cancer cells", "result": 2, "unit": "fold"}
    ]},
    {"smiles": "COc1ccc2c(N(C)c3ncnc4c3CCC4)cccc2c1", "note": "[Compound 8, N-(6’-methoxynaphthyl-1’)-N-methyl-cyclopenta[d]pyrimidin-4-amine]", "values": [
      {"measurement": "microtubule depolymerizing activity", "setting": "[1]", "result": "no microtubule depolymerizing activity"},
      {"measurement": "fold less potent/active than 5 in the U251 cytotoxicity assay", "setting": "U251 cancer cells", "result": 7, "unit": "fold"}
    ]},
    {"smiles": "COc1cccc2cc(N(C)c3ncnc4c3CCC4)ccc12", "note": "[Compound 9, N-(5’-methoxynaphthyl-2’)-N-methyl-cyclopenta[d]pyrimidin-4-amine hydrochloric salt]", "values": [
      {"measurement": "fold less potent/active than 5 in the U251 cytotoxicity assay", "setting": "U251 cancer cells", "result": 4, "unit": "fold"}
    ]},
    {"smiles": "Cn1nnc2c(C(N)=O)ncn2c1=O", "note": "[temozolomide, reference compound]", "values": [
      {"measurement": "Maximal tolerated dose (MTD)", "setting": "[2]", "result": 50, "unit": "mg/kg/wk"}
    ]}
  ]
}
